Consider 15 compounds from ChEMBL document CHEMBL3259730, “Synthesis and biological evaluation of 2,3-diaryl isoquinolinone derivatives as anti-breast cancer agents targeting ERα and VEGFR-2” (Bioorg Med Chem Lett, 2014).

Experiment [1] has as its system MCF7. Kind of experiment: Antiproliferative activity against human MCF7 cells after 48 hrs by MTT assay. Type of experiment: functional, cell-based. To be noted: MCF7, 48 h.
Experiment [2] addresses Vascular endothelial growth factor receptor 2 (Homo sapiens) (UniProt P35968). To be noted: at 0.1 mg/mL.
Description: Inhibition of VEGFR-2 (unknown origin) at 0.1 mg/ml after 1 hr by HTRF assay
Experiment [3] deals with Chorioallantoic membrane. Nature of the experiment: Antiangiogenic activity in Chicken chorioallantoic membrane after 72 hrs relative to control. As to conditions: Gallus gallus. Type of experiment: functional, cell membranes.

Vascular endothelial growth factor receptor 2 (Homo sapiens), sequence (P35968 whole entry): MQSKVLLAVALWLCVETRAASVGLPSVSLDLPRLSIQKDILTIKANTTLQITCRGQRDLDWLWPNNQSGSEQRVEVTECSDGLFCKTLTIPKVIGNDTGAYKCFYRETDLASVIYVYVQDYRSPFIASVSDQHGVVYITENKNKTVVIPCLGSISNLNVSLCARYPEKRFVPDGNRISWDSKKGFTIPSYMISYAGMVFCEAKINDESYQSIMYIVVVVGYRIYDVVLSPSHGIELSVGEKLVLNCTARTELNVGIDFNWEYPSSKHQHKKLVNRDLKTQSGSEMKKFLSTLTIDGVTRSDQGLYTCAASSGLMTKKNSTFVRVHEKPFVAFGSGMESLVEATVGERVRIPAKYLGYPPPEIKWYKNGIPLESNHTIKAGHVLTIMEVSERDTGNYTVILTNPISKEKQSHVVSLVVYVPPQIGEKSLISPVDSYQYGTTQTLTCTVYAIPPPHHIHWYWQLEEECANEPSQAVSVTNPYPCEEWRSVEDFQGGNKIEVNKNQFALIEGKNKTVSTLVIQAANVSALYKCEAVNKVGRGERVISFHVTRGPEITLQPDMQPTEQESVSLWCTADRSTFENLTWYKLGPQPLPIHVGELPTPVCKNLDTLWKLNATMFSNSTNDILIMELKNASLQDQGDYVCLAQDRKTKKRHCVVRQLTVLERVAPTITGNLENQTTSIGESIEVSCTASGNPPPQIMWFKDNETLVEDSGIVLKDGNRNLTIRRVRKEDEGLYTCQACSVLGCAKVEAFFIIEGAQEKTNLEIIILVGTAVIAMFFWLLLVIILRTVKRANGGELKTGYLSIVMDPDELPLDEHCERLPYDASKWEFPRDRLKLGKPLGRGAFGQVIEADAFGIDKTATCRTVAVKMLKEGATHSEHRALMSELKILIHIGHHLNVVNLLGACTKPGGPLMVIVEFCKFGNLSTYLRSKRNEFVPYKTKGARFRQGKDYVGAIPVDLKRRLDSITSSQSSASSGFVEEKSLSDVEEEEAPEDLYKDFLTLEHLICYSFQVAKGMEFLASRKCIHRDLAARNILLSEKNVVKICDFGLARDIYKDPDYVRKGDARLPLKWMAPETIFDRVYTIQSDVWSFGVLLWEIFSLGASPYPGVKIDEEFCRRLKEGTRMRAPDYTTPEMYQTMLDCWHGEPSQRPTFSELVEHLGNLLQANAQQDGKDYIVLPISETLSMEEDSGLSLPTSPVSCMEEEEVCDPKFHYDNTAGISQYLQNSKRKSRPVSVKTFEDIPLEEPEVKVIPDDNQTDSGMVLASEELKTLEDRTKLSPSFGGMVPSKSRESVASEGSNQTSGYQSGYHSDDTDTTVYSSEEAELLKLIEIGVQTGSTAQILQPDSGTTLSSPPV

Compound `COc1ccc(-c2cc3ccc(OC)cc3c(=O)n2-c2ccc(OCCN(C)C)cc2)cc1` yielded an IC50 in experiment [1] greater than 1000 µM. Moreover, the inhibition in experiment [2] came out at 66.1%.
As to `O=c1c2cc(O)ccc2cc(-c2ccc(O)cc2)n1-c1ccc(OCCN2CCCC2)cc1`, the IC50 in experiment [1] is 11.8 µM. Besides, the inhibition in experiment [2] was determined as 49.9%.
`COc1ccc(-c2cc3ccc(OC)cc3c(=O)n2-c2ccc(OCCCN3CCCC3)cc2)cc1`: the IC50 in experiment [1] amounted to 479 µM. The inhibition in experiment [2] was 98.5%.
In experiment [1], `COc1ccc(-c2cc3ccc(OC)cc3c(=O)n2-c2ccc(OCCN3CCCC3)cc2)cc1` gave an IC50 of 863 µM. Besides, in experiment [2], the inhibition came to 83.8%.
Compound `CC/C(=C(\c1ccccc1)c1ccc(OCCN(C)C)cc1)c1ccccc1` [TAMOXIFEN] gave an IC50 in experiment [1] of 1.89 µM.
In turn, `CN1CCN(CCOc2ccc(-n3c(-c4ccc(O)cc4)cc4ccc(O)cc4c3=O)cc2)CC1` had a 50% inhibitory concentration (IC50) in experiment [1] of 9.45 µM. The inhibition result was “Dose-dependent effect” in experiment [3] and 103% in experiment [2].
As to `O=c1c2cc(O)ccc2cc(-c2ccc(O)cc2)n1-c1ccc(OCCCN2CCCCC2)cc1`, the half-inhibitory concentration (IC50) in experiment [1] was found to be 2.73 µM. In addition, the inhibition result in experiment [3] was “Dose-dependent effect”; in experiment [2], 100%.
In experiment [1], `COc1ccc(-c2cc3ccc(OC)cc3c(=O)n2-c2ccc(OCCN3CCOCC3)cc2)cc1` registered an IC50 greater than 1000 µM. In addition, the inhibition in experiment [2] is 51.2%.
For `CN(C)CCOc1ccc(-n2c(-c3ccc(O)cc3)cc3ccc(O)cc3c2=O)cc1`, the midpoint of inhibition in experiment [1], the IC50, lay at 18.9 µM. The inhibition in experiment [2] was 79.4%.
In experiment [1], `CCN(CC)CCOc1ccc(-n2c(-c3ccc(OC)cc3)cc3ccc(OC)cc3c2=O)cc1` returned an IC50 of 383 µM. In addition, the inhibition in experiment [2] was 92.5%.
The compound `COc1ccc(-c2cc3ccc(OC)cc3c(=O)n2-c2ccc(OCCN3CCN(C)CC3)cc2)cc1` showed an IC50 in experiment [1] of 429 µM. Also, in experiment [2], the inhibition was determined as 79.4%.
In experiment [1], `COc1ccc(-c2cc3ccc(OC)cc3c(=O)n2-c2ccc(OCCN3CCCCC3)cc2)cc1` gave an IC50 of 322 µM. The inhibition in experiment [2] turned out to be 65.3%.
`COc1ccc(-c2cc3ccc(OC)cc3c(=O)n2-c2ccc(OCCCN3CCCCC3)cc2)cc1` registered a half-maximal inhibitory concentration (IC50) in experiment [1] greater than 1000 µM. The inhibition in experiment [2] was found to be 72.8%.
For the compound `O=c1c2cc(O)ccc2cc(-c2ccc(O)cc2)n1-c1ccc(OCCN2CCCCC2)cc1`, the midpoint of inhibition in experiment [1], the IC50, lay at 3.63 µM. In experiment [2], the inhibition is 84.8%.
The compound `O=c1c2cc(O)ccc2cc(-c2ccc(O)cc2)n1-c1ccc(OCCCN2CCCC2)cc1` gave a half-maximal inhibitory concentration (IC50) in experiment [1] of 12.7 µM. Besides, in experiment [2], the inhibition amounted to 48.3%.
